Entries after “also recorded” stand apart in the source; their conditions may differ.
Tests used:
[1] = tested on: FGF21 binding to FGFR isoforms 1c, 2c, 3c, 4; assay: Pull-down and plate binding of FGF21 to FGFR isoforms with sKL or heparin; design: species or system human
Method: (§1) To study the interaction between Fc-tagged FGFR isoforms (Fc-FGFR), FGF isoforms, and sKL, immunoprecipitation studies were conducted. Protein A beads (6501, BioVision) and protein G beads (6511, BioVision) were used at 25 μl of a 50% stock slurry per sample in a total bead volume of 50 μl. Beads were washed 5× in activity buffer (50 mM Tris [pH 7.4], 200 mM NaCl, 0.01% Tween 20). Bead spin-down assays were all performed for 2 minutes at 5000 g. Beads were resuspended in 1 ml of activity buffer in a 1.5-ml snap cap tube. One microgram of Fc-FGFR1 to 4 was incubated with the beads for 1 hour on a bead rotator. Control samples were incubated with 2 μg of anti-FGF antibody instead of Fc-FGFR. […] Samples were analyzed using SDS-PAGE and Western blotting.
(§2) Proteins were coated on 96-well plates (MaxiSorp; 439454, Thermo Fisher Scientific), and proteins were added to wells in 100 μl of enzyme-linked immunosorbent assay (ELISA) coating buffer (E107, Bethyl Laboratories) with a lid placed overtop and incubated at 4° C. overnight. […] Reactions were stopped with ELISA stop solution (E115, Bethyl Laboratories) and analyzed using the Synergy HI plate reader (BioTek) at 450 nm wavelength. […] As a control to remove background absorbance values, wells were coated with an equal amount of BSA to match the amount of protein coated in experimental wells and treated the same as experimental wells. […]

[2] = tested on: intact hearts isolated from adult mice; assay: Isolated heart contractility; design: species or system mouse; conditions: FGF23 9 ng/ml with heparin 0.06 USP/ml
Method: Isolated heart contractility was performed as described previously. 14,70,71 Briefly, 2- to 3-month-old male CD-1 mice were anesthetized using 3% isoflurane and hearts were carefully removed and placed into oxygenated Ringer's solution composed of 140 mM NaCl, 2.0 mM KCl, 2.5 mM CaCl2), 1.0 mM MgSO4, 1.5 mM K2HPO4, 10 mM N-2-hydroxyethylpiperazine-N-2-ethanesulfonic acid, and 10 mM glucose (pH 7.4). Atria were then removed, and the intact ventricular muscle was attached to small metallic clips hung vertically from a force transducer (ADInstruments) between bipolar platinum-stimulating electrodes and suspended in 25-ml glass tissue chambers (ADInstruments). Heart muscles were perfused with Ringer's solution continuously bubbled with 100% O2 at room temperature. Hearts were stretched to the length of maximum force development and paced at 1 Hz (5 ms pulse duration, 30-60 V; Grass Instruments SD9 Square Pulse Stimulator). After a stable baseline was obtained, hearts were treated with either vehicle or FGF23 (9 ng/ml) alone or in combination with heparin (0.06 USP/ml) while contractile force output was monitored for 30 minutes. Contractile data were recorded and analyzed with LabChart 8 software (ADInstruments). Waveform changes were analyzed for peak contraction force (in millinewtons) and maximum slope of force development and presented as fold change from baseline values.

[3] = target: T1, FGF23 binding to FGFR3c (Homo sapiens, UniProt P22607+Q9GZV9); assay: Pull-down of FGF23 with Fc-FGFR on protein A/G beads with sKL, heparin or PBS; conditions: with heparin, or alone
T1 construct: Fc-coupled FGFR ectodomains were immobilized on protein A/G beads; purchased R&D Systems 2604FG025/CF or 2629FG025/CF; 766FR050
T1 sequence (Q9GZV9 25-251): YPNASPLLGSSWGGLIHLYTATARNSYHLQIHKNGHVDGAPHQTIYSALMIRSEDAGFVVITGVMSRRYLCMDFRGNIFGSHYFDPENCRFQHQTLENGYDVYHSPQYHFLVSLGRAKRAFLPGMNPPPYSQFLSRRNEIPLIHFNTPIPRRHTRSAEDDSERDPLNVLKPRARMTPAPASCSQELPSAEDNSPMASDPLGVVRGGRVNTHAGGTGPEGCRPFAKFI
T1 sequence (P22607 23-375 limits assumed): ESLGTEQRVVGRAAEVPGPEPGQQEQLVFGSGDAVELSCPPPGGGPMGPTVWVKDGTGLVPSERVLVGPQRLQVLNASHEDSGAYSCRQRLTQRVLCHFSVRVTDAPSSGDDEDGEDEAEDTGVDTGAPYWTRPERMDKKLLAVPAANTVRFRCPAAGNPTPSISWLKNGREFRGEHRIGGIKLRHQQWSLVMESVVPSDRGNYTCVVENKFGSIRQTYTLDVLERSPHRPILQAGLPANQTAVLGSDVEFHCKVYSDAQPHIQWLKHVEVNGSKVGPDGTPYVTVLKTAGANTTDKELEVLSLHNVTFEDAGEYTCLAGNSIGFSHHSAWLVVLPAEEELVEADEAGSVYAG
Method: (§3) To study the interaction between Fc-tagged FGFR isoforms (Fc-FGFR), FGF isoforms, and sKL, immunoprecipitation studies were conducted. Protein A beads (6501, BioVision) and protein G beads (6511, BioVision) were used at 25 μl of a 50% stock slurry per sample in a total bead volume of 50 μl. Beads were washed 5× in activity buffer (50 mM Tris [pH 7.4], 200 mM NaCl, 0.01% Tween 20). Bead spin-down assays were all performed for 2 minutes at 5000 g. Beads were resuspended in 1 ml of activity buffer in a 1.5-ml snap cap tube. One microgram of Fc-FGFR1 to 4 was incubated with the beads for 1 hour on a bead rotator. Control samples were incubated with 2 μg of anti-FGF antibody instead of Fc-FGFR. Beads were then pelleted at 5000 g for 2 minutes and washed 5× with activity buffer. Beads were resuspended and incubated with different combinations of 500 ng of FGF, 1 μg of sKL, 1.6 United States Pharmacopeia (USP) units of heparin, or phosphate-buffered saline (PBS). Beads were incubated for 1 hour on a tube rotator, and beads were pelleted and washed as before. One hundred microliters of 1× Laemmli sample buffer (1610737, Bio-Rad) with 1.42 M 2-mercaptoethanol was added, and samples were boiled for 5 minutes. Samples were analyzed using SDS-PAGE and Western blotting.
(§4) The sample (20 μl) was loaded onto Mini-PROTEAN TGX Precast Gel 4-20% for experiments with <9 samples (4568094, Bio-Rad) or Criterion TGX Precast Gel 4-20% (5678094, Bio-Rad) for experiments with >9 samples. Gels were run in 1× Tris/Glycine/SDS buffer (1610732, Bio-Rad) at 150 V and stopped when the sample dye reached the end of the gel. Gels were removed and electrotransferred via a semi-dry cassette (1703940, Bio-Rad) in I× Tris/Glycine buffer (1610734, Bio-Rad) with 20% methanol. Gels were transferred onto polyvinylidene diflouride membranes (IPVH00010, Millipore) at 20 V for 1 hour. Membranes were then blocked in 5% dried milk with 0.5% Tween 20 diluted in Tris-buffered saline (TBST; pH 7.5) for 1 hour and probed with antibodies against specific antigens at 1:1000 in TBST with 5% dried milk. Blots were washed 3× for 5 minutes in TBST and probed with HRP-coupled secondary antibodies against specific species at 1:10,000 in TBST with 5% dried milk. Membranes were imaged on the SRX-101A X-ray film developer (Konica Minolta).

[4] = target: T2, FGF23 binding to FGFR2c (Homo sapiens, UniProt P21802); assay: as above; conditions: with heparin, or alone
T2 construct: Fc-coupled FGFR ectodomains were immobilized on protein A/G beads; purchased R&D Systems 2604FG025/CF or 2629FG025/CF; 712FR050
T2 sequence (P21802 22-377 limits assumed): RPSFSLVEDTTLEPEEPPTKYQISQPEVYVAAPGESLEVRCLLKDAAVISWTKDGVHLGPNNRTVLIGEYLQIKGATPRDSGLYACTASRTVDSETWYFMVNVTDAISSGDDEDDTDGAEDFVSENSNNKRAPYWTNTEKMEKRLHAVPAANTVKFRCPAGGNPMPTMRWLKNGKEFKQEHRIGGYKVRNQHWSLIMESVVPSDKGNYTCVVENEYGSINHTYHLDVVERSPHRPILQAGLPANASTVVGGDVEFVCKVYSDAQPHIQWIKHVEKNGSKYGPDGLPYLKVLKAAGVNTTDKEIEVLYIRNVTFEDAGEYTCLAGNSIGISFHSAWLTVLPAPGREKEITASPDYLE
Method: as §3, §4

[5] = target: T3, FGF23 binding to FGFR1c (Homo sapiens, UniProt P11362+Q9GZV9); assay: as above; conditions: with heparin, or alone
T3 construct: Fc-coupled FGFR ectodomains were immobilized on protein A/G beads; purchased R&D Systems 2604FG025/CF or 2629FG025/CF; 658FR050
T3 sequence (Q9GZV9 25-251): as the sequence (Q9GZV9 25-251) above
T3 sequence (P11362 22-376 limits assumed): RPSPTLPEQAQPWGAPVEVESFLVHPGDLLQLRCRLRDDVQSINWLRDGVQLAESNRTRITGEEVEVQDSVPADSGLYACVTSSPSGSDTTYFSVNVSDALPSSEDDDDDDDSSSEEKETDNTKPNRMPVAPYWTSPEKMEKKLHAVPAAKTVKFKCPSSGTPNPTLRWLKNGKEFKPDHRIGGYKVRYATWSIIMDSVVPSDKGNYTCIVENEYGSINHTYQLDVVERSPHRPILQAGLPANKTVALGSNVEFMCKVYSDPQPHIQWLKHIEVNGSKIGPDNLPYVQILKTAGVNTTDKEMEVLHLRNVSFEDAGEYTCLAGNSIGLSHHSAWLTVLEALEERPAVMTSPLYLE
Method: as §3, §4

[6] = tested on: FGF19 binding to FGFR isoforms 1c, 2c, 3c, 4; assay: Pull-down and plate binding of FGF19 to FGFR isoforms with sKL or heparin; design: species or system human
Sequence of FGF19 binding to FGFR isoforms 1c, 2c, 3c, 4 (O95750 25-216): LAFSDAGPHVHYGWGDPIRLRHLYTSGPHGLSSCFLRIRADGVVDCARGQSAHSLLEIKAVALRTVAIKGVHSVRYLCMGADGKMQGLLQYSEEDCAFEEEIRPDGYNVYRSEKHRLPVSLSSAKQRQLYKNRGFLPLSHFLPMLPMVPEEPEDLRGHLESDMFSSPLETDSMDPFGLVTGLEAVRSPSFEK
Method: as §1, §2

binding of FGF21 to any of the FGFR isoforms [1]: does not mediate binding | FGF23 co-precipitation with Fc-FGFR3c [3]: weaker FGF23 binding | FGF23 co-precipitation with Fc-FGFR2c [4]: weaker FGF23 binding | FGF23 co-precipitation with Fc-FGFR1c [5]: weaker FGF23 binding | binding of FGF19 to any of the FGFR isoforms [6]: does not mediate binding
Substance: heparin [reference compound]
FGF23-increased contraction force in the presence of heparin [2]: further increase; also recorded: further elevated
